# Measured values from patent US20250249025A1, “DRUG DELIVERY CARRIER UTILIZING PROPERTY OF D-ALLOSE BEING UPTAKEN BY CANCER CELL, DRUG DELIVERY METHOD, AND COMPOSITION FOR TREATING RENAL CELL CARCINOMA” (NATIONAL UNIVERSITY CORPORATION KAGAWA UNIVERSITY, priority 2019, published 2025).
# Experiments:
# Assay type in all cases: cell-based
# [1] = test system: human bladder carcinoma cell line RT112; assay: Rare sugar uptake experiment, sugar content in disrupted cell suspension of RT112; conditions: RT112, 48 hours; for D-glucose content in cell: named sugar added to RPMI-1640 at 10 mM, HPLC after ABEE labeling
# Experimental: (§1) An uptake amount of a rare sugar, which had been added to a medium, into carcinoma cells was analyzed using the cell lines of three types of cancers. As the rare sugar, four kinds, that is, D-allose, D-allulose (D-psicose), L-allulose (L-psicose), and allitol were used, while D-glucose and fructose were used as a monosaccharide which was not a rare sugar.
# (§2) Cells of each of the cell lines were cultured in RPMI-1640 media and during culturing, six sugars were each added to the resulting media and cultured. After culturing, an amount of each sugar taken up into the cells was analyzed. The medium to which no sugar was added during culturing was used as a control.
# (§3) Used were human bladder carcinoma cell lines (RT112, 253), and J82), human prostatic carcinoma cell lines (LNCa, Du145, and PC-3), and human renal cell carcinoma cell lines (ACHN, Caki-I, and Caki-II).
# (§4) After cells were cultured in RPMI-1640 (2000 mg D-glucose/L) media, the above monosaccharides and rare sugars were added to the resulting media, respectively. Described specifically, they were following seven combinations: RPMI-1640 alone (control), RPMI-1640+D-glucose, RPMI-1640+L-allulose, RPMI-1640+D-allulose, RPMI-1640+D-fructose, RPMI-1640+D-allose, and RPMI-1640+D-allitol. The final concentration of the sugar in the medium was adjusted to 10 mM and no sugar was added in the control.
# (§5) Five-ml portions of a 3.0×10^4 cells/ml cell suspension prepared using RPMI-1640 were seeded in dishes having a diameter of 6 cm (1.5×10^5 cells/dish) and cultured for 24 hours in the RPMI-1640 medium containing 2000 mg/l of D-glucose as a nutrient source. Twenty-four hours later, the media were changed to the culture solutions containing the monosaccharides and rare sugars described above in 2), respectively, followed by culturing for 48 hours.
# (§6) After culturing for 48 hours, the attached human carcinoma cells were mechanically separated and collected in a Spitz tube together with the culture solution and floating cells. After the supernatant formed by centrifugation (4° C., 1200 rpm, and 5 minutes) was removed to obtain cell pellets alone, 5 ml of a phosphate buffer physiological saline (PBS) was added for the purpose of washing to obtain a cell suspension of the cell pellets. A gain, the resulting cell suspension was centrifuged at 4° C. and 1200 rpm for 5 minutes and the supernatant was removed. To the cell pellets after washing was added 1 ml of pure water to suspend them therein. Ultrasonic disruption (intensity: 40%, 30 seconds) was then performed and the monosaccharide in the disrupted cell suspension was labeled with ABEE, followed by analysis by HPLC. From the area thus obtained, the sugar content in the cells was determined using a calibration curve. With respect to the ketose, two peaks were found after labeling with ABEE so that the sugar content in the cells was determined from the calibration curves of both peaks.
# [2] = test system: human bladder carcinoma cell line 253J; assay: Rare sugar uptake experiment, sugar content in disrupted cell suspension of 253J; conditions: 253J, 48 hours; for D-glucose content in cell: named sugar added to RPMI-1640 at 10 mM, HPLC after ABEE labeling
# Experimental: as §1, §2, §3, §4, §5, §6
# [3] = test system: human bladder carcinoma cell line J82; assay: Rare sugar uptake experiment, sugar content in disrupted cell suspension of J82; conditions: J82, 48 hours; for D-glucose content in cell: named sugar added to RPMI-1640 at 10 mM, HPLC after ABEE labeling
# Experimental: as §1, §2, §3, §4, §5, §6
# [4] = test system: human prostate carcinoma cell line LNCa; assay: Rare sugar uptake experiment, sugar content in disrupted cell suspension of LNCa; conditions: LNCa, 48 hours; for D-glucose content in cell: named sugar added to RPMI-1640 at 10 mM, HPLC after ABEE labeling
# Experimental: as §1, §2, §3, §4, §5, §6
# [5] = test system: human prostate carcinoma cell line Du145; assay: Rare sugar uptake experiment, sugar content in disrupted cell suspension of Du145; conditions: Du145, 48 hours; for D-glucose content in cell: named sugar added to RPMI-1640 at 10 mM, HPLC after ABEE labeling
# Experimental: as §1, §2, §3, §4, §5, §6
# [6] = test system: human prostate carcinoma cell line PC-3; assay: Rare sugar uptake experiment, sugar content in disrupted cell suspension of PC-3; conditions: PC-3, 48 hours; for D-glucose content in cell: named sugar added to RPMI-1640 at 10 mM, HPLC after ABEE labeling
# Experimental: as §1, §2, §3, §4, §5, §6
# [7] = test system: human renal cell carcinoma cell line ACHN; assay: Rare sugar uptake experiment, sugar content in disrupted cell suspension of ACHN; conditions: ACHN, 48 hours; for D-glucose content in cell: named sugar added to RPMI-1640 at 10 mM, HPLC after ABEE labeling
# Experimental: as §1, §2, §3, §4, §5, §6
# [8] = test system: human renal cell carcinoma cell line Caki-I; assay: Rare sugar uptake experiment, sugar content in disrupted cell suspension of Caki-I; conditions: Caki-I, 48 hours; for D-glucose content in cell: named sugar added to RPMI-1640 at 10 mM, HPLC after ABEE labeling
# Experimental: as §1, §2, §3, §4, §5, §6
# [9] = test system: human renal cell carcinoma cell line Caki-II; assay: Rare sugar uptake experiment, sugar content in disrupted cell suspension of Caki-II; conditions: Caki-II, 48 hours; for D-glucose content in cell: named sugar added to RPMI-1640 at 10 mM, HPLC after ABEE labeling
# Experimental: as §1, §2, §3, §4, §5, §6
# [10] = sugar added to RPMI-1640 at 10 mM, ketoses: range from two peaks
Compound,D-glucose content in cell [1] [µg],D-glucose content in cell [2] [µg],D-glucose content in cell [3] [µg],D-glucose content in cell [4] [µg],D-glucose content in cell [5] [µg],D-glucose content in cell [6] [µg],D-glucose content in cell [7] [µg],D-glucose content in cell [8] [µg],D-glucose content in cell [9] [µg],"Content in cell of the added sugar [1, 10] [µg]","Content in cell of the added sugar [2, 10] [µg]","Content in cell of the added sugar [3, 10] [µg]","Content in cell of the added sugar [4, 10] [µg]","Content in cell of the added sugar [5, 10] [µg]","Content in cell of the added sugar [6, 10] [µg]","Content in cell of the added sugar [7, 10] [µg]","Content in cell of the added sugar [8, 10] [µg]","Content in cell of the added sugar [9, 10] [µg]"
O=C(CO)[C@H](O)[C@H](O)[C@H](O)CO [D-allulose],3.4,0.6,2.1,7.5,3.9,1.6,1.9,2.3,3.1,–,–,–,–,–,–,–,–,–
O=C(CO)[C@@H](O)[C@H](O)[C@H](O)CO [D-fructose],4.4,3.3,2.7,4.1,4.2,2.7,2.1,2.5,3.6,12.7 to 15.7,0.0,11.1 to 15.0,0.0,12.9 to 17.0,16.5 to 20.1,16.8 to 19.0,16.7 to 20.7,20.4 to 21.3
O=C[C@H](O)[C@@H](O)[C@H](O)[C@H](O)CO [D-glucose],16.7,4.0,7.2,6.5,4.4,6.7,5.6,4.4,8.4,–,–,–,–,–,–,–,–,–
O=C(CO)[C@@H](O)[C@@H](O)[C@@H](O)CO [L-allulose],3.9,0.5,1.9,10.2,2.5,1.5,2.1,2.3,1.7,–,–,–,–,–,–,–,–,–
OC[C@@H](O)[C@@H](O)[C@@H](O)[C@@H](O)CO [allitol],3.6,0.5,2.4,9.2,4.5,2.1,1.8,2.4,4.3,–,–,–,–,–,–,–,–,–
